According to patent US10640545B2 (THE GOVERNORS OF THE UNIVERSITY OF ALBERTA, priority 2017, dated 2020):
Where a SMILES comes first, the peptide text is derived from it. [ ]: non-standard residue; d: D form. The star is where a group is joined. Phe(4-Br) = N[C@@H](Cc1ccc(Br)cc1)C(=O)O; Palmitoyl = CCCCCCCCCCCCCCCC(=O)*; NMeL = CN[C@@H](CC(C)C)C(=O)O; αMeL = CC(C)C[C@](C)(N)C(=O)O; Nle = CCCC[C@H](N)C(=O)O; Aib = CC(C)(N)C(=O)O

What was measured:
anesthetized mice = test: Blood pressure assay in anesthetized mice; format: in vivo; settings: 1.4 μM/kg body weight injected; for blood pressure lowering (hypotensive) effect: SBP, DBP, MABP
Protocol: Synthetic peptides 8-19 were tested for blood pressure lowering abilities in anesthetized mice. Apelin peptides were injected through […], monitoring blood pressure (BP) and heart rate (HR) over 60 minutes.
Mice were anaesthetized with 1.5% isoflurane/oxygen, and body temperature was monitored and maintained at 36° C. by a heating pad. The aorta was cannulated via the right carotid artery using a PV loop catheter (Model 1.2F from Scisense, Transonic) in order to continuously record arterial blood pressure and heart rate (LabScribe 2.0, Scisense). […] Results are reported as systolic blood pressure (SBP), diastolic blood pressure (DBP), mean arterial blood pressure (MABP) and heart rate (HR).
Apelin peptides 11, 56-59 as well as the KLKB1-cleavage fragments 54 and 55 were tested for blood pressure lowering abilities in anesthetized mice.
Mice were anesthetized with 1.5% isoflurane/oxygen, and body temperature was monitored and maintained at 36° C. by a heating pad. The aorta was cannulated via the right carotid artery using a PV loop catheter (model 1.2F from Scisense, Transonic) in order to continuously record arterial blood pressure and heart rate (LabScribe 2.0, Scisense). Compounds 11, and 54-59 or 55-59 (1.4 μM/kg body weight) or the same volume of saline was injected via the right jugular vein. Results are reported as systolic blood pressure (SBP), diastolic blood pressure (DBP), mean arterial blood pressure (MABP), and heart rate (HR) shown in FIGS. 15A-D.
Apelin peptides were delivered systemically via the right internal jugular vein while blood pressure (BP) and heart rate (HR) were continuously monitored in the aorta cannulated via the right carotid artery. All N-terminally extended apelin peptides, except 58, show pronounced and time-stable blood pressure lowering effects (FIGS. 15a-d). […] This correlates with the results obtained from the Ca^2+ mobilization assay.

in vitro = settings: human, plasma

| SMILES | effect on heart rate (HR) (anesthetized mice) | blood pressure lowering (hypotensive) effect (anesthetized mice) | remaining at 0.5 h, 80 µM (in vitro) [%] | remaining at 1 h, 80 µM (in vitro) [%] |
| --- | --- | --- | --- | --- |
| CCCC[C@H](NC(=O)[C@@H]1CCCN1C(=O)CNC(=O)[C@H](CCCCN)NC(=O)[C@H](Cc1c[nH]cn1)NC(=O)[C@H](CO)NC(=O)[C@](C)(CC(C)C)NC(=O)[C@H](CCCNC(=N)N)NC(=O)[C@@H]1CCCN1C(=O)[C@H](CCCNC(=N)N)NC(=O)[C@H](CCC(N)=O)NC(=O)[C@H](CCCNC(=N)N)NC(=O)[C@H](CCCNC(=N)N)NC(=O)[C@H](Cc1ccccc1)NC(=O)[C@@H](N)CCCCN)C(=O)NC(C)(C)C(=O)N[C@@H](Cc1ccc(Br)cc1)C(=O)O [Peptide 15] (H-KFRRQRPR[αMeL]SHKGP[Nle][Aib][Phe(4-Br)]-OH; N-terminus and C-terminus assumed) | had an impact on the heart rate | without inducing any vasoactive effects | 77 ± 4 | 48 ± 7 |
| CCCC[C@H](NC(=O)[C@@H]1CCCN1C(=O)CNC(=O)[C@H](CCCCN)NC(=O)[C@H](Cc1c[nH]cn1)NC(=O)[C@H](CO)NC(=O)[C@H](CC(C)C)NC(=O)[C@H](CCCNC(=N)N)NC(=O)[C@@H]1CCCN1C(=O)[C@H](CCCNC(=N)N)NC(=O)[C@H](CCC(N)=O)NC(=O)[C@@H](N)CCCNC(=N)N)C(=O)NC(C)(C)C(=O)N[C@@H](Cc1ccc(Br)cc1)C(=O)O [Peptide 54] (H-RQRPRLSHKGP[Nle][Aib][Phe(4-Br)]-OH; C-terminus assumed) |  | inactive or nearly so |  |  |
| CCCC[C@H](NC(=O)[C@@H]1CCCN1C(=O)CNC(=O)[C@H](CCCCN)NC(=O)[C@H](Cc1c[nH]cn1)NC(=O)[C@H](CO)NC(=O)[C@H](CC(C)C)N(C)C(=O)[C@H](CCCNC(=N)N)NC(=O)[C@@H]1CCCN1C(=O)[C@H](CCCNC(=N)N)NC(=O)[C@H](CCC(N)=O)NC(=O)[C@@H](N)CCCNC(=N)N)C(=O)NC(C)(C)C(=O)N[C@@H](Cc1ccc(Br)cc1)C(=O)O [Peptide 55, Arg-Gln-Arg-Pro-Arg-NMeLeu-Ser-His-Lys-Gly-Pro-Nle-Aib-paraBrPhe] (H-RQRPR[NMeL]SHKGP[Nle][Aib][Phe(4-Br)]-OH; C-terminus assumed) |  | inactive or nearly so |  |  |
| CCCCCCCCCCCCCCCC(=O)N[C@@H](CCCCN)C(=O)N[C@@H](Cc1ccccc1)C(=O)N[C@@H](CCCNC(=N)N)C(=O)N[C@@H](CCCNC(=N)N)C(=O)N[C@@H](CCC(N)=O)C(=O)N[C@@H](CCCNC(=N)N)C(=O)N1CCC[C@H]1C(=O)N[C@@H](CCCNC(=N)N)C(=O)N[C@@H](CC(C)C)C(=O)N[C@@H](CO)C(=O)N[C@@H](Cc1c[nH]cn1)C(=O)N[C@@H](CCCCN)C(=O)NCC(=O)N1CCC[C@H]1C(=O)N[C@@H](CCCC)C(=O)NC(C)(C)C(=O)N[C@@H](Cc1ccc(Br)cc1)C(=O)O [Peptide 56] (Palmitoyl-KFRRQRPRLSHKGP[Nle][Aib][Phe(4-Br)]-OH; C-terminus assumed) |  | more potent than apelin-17 (2) and apelin-17A2 (5) |  |  |
